From a melting point compilation (Tetko et al.; mined from patent text by program, amines drawn as free bases though some values may be those of a salt)

Compound | melting point [°C]
CCOC(=O)c1ccc(-c2nc(N)sc2Cc2ccc(S(C)(=O)=O)cc2)cc1 | 206 to 207
CCOC(=O)c1cn(-c2cc(OC)c(F)cc2F)c2c(C)c(N)c(F)cc2c1=O | 232 to 235
CC1(C)CCC(C)(C)c2cc3c(cc21)CCc1cc(-c2ccc(C(=O)O)cc2)oc1-3 | 264 to 265
Cc1cccc(COc2cccc(OCc3ccc(-c4ccccc4)cn3)c2)c1C(=O)O | 80 to 83
COc1cccc2c1nc(C1CC1)n2CC=C(C)C | 41 to 42
CC(O)Cn1nc2c3c(cc(N)cc31)CCC2 (stereo not drawn) | 125 to 127
CCOC(=O)c1cn(C2CC2)c2nc(N3CCC(NC(C)=O)C3)c(F)cc2c1=O (stereo not drawn) | 246 to 248
COc1cc(C(=O)O)ccc1OCCCO | 162
O=C(CN1CCN(CCSc2nc3cccc(C(F)(F)F)c3o2)CC1)Nc1c(C(F)(F)F)cc(OCc2ccccc2)cc1C(F)(F)F | 156 to 158
N#Cc1ccc(C(=O)c2cc(C(F)(F)F)ccc2O)cc1 | 118
CC(=O)Nc1ccc2c(c1)OC(C)O2 (stereo not drawn) | 155 to 156
COc1cccc(C(=O)OC2CC3C(=O)NC4(C(=O)NS(=O)(=O)C5CC5)CC4C=CCOCCCC(NC(=O)OC(C)(C)C)C(=O)N3C2)c1 (stereo not drawn) | 149 to 151
CCC(CC)CNc1cccc(-c2ccnc3c(C(=O)c4cccs4)cnn23)c1 | 192 to 194
CN(C)C=Nc1ccc(-c2cc3c(Nc4cccc(Cl)c4)ncnc3[nH]2)cc1 | > 300
COC(=O)CC(=O)Cc1cc(F)c(F)cc1F | 37 to 39
CCCCC(=O)Nc1ccc(Br)c(-n2nc(CC)n(Cc3ccc(-c4ccccc4S(N)(=O)=O)cc3F)c2=O)c1 | 223 to 225
Cc1ccc2c(CCNCC#N)c[nH]c2c1 | 92
N#CCc1c[nH]c2cnc(-n3cncn3)cc12 | 218 to 220
Cc1ccc(C2SC(=S)N(C(=O)NN3CCOCC3)C2C)cc1 (stereo not drawn) | 101 to 103
CCC(=O)c1c(C)c(NC(=O)CC(C)(C)C)c(C)c2c1OCC2c1ccc(C(C)C)cc1 (stereo not drawn) | 163 to 164
CCCCCCCCCCCCCCCCn1nnc(C(C(=O)Nc2c(OC)cc(OC)cc2OC)c2ccccc2)n1 (stereo not drawn) | 134 to 135
O=C(NC(=NCCCc1c[nH]cn1)NCC(O)COc1ccccc1)c1ccccc1 (stereo not drawn) | 129

Compound | melting point [°C]
Cn1nc(N)nc1NCCCOc1cccc2c(N3CCCCC3)nccc12 | 173
CCCCC(Cc1ccc(OCc2ccccc2)cc1)(C(=O)OCC)C(=O)OCC | 73
C=C(C)c1ccc2occ(C#N)c(=O)c2c1 | 142 to 144
COc1ccc(CN2N=C(c3ccc(OC)c(OC)c3)[C@@H]3CCCC[C@@H]3C2=O)cc1 (relative stereo) | 77 to 78
CCOC(=O)NC(=O)CN(C)C(=O)c1c(F)ccc2c(C(F)(F)F)c(OC)ccc12 | 130 to 132
CNC(=O)ON=C1N=C(C(C)C)C(C)(C)S1 | 89 to 91
O=C(NO)c1ccc(C(=O)NOCCCc2ccccc2)cc1 | 179 to 181
CN(C)Cc1coc(-c2cccc(C3=Nc4ccc(-n5cccc5)cc4NC(=O)C3)c2)n1 | 172 to 175
NCCC(Nc1ccccc1)c1ccccc1 (stereo not drawn) | 104 to 105
CSC(=C[N+](=O)[O-])S(C)=O (stereo not drawn) | 137 to 143
CCCNC(C)=C1C(=O)OC(=O)C(C(C)=O)=C1O | 145 to 148
O=C1c2c(O)ccc(O)c2C(=O)c2c(NCCN3CCCCC3CO)ccc(NCCN3CCCCC3CO)c21 (stereo not drawn) | 208 to 210
CCN(c1ccc(SC)cc1C#N)S(=O)(=O)c1ccc(C)cc1 | 136 to 137
CCOC(=O)N1CCC(N2CCN(CC(=O)Nc3c(C)cccc3C)CC2)CC1Cc1ccc(Cl)c(Cl)c1 (stereo not drawn) | 101
CC(=O)c1ccc(SCCOc2ccc3ccccc3c2)cc1 | 151 to 152
S=C=Nc1ccccc1-c1ccc(Cl)cc1 | 63
C[C@H]1CN(C(=O)OC(C)(C)C)CCCN1S(=O)(=O)c1ccccc1[N+](=O)[O-] | 113 to 114
COC(=O)c1cccc(NC(=O)CSC(C)=O)c1 | 118 to 120
CC(=O)c1sc(-c2ccc(C(F)(F)F)cc2)nc1C | 89 to 90
COC(=O)c1nc2c(c(-c3ccccc3)nn2-c2ccccc2)c(N)c1C(=O)OC | 277 to 279
CC(=O)NCc1cccc(-c2csc(N=C(N)N)n2)n1 | 198 to 200
Cc1nc2nc[nH]c2c2nc(-c3ccccc3)nn12 | 285

Compound | melting point [°C]
CN(C)S(=O)(=O)c1cc(C(=O)O)cc([N+](=O)[O-])c1Oc1ccccc1 | 224 to 226
CN(C)c1ncc2cc(-c3c(Cl)cccc3Cl)c(=O)n(C)c2n1 | 256 to 258
CCCCn1c(O)nc2c(N)ncnc21 | 222 to 224
Cc1ccc2nc(C)n(C3CCC(=O)NC3=O)c(=O)c2c1 (stereo not drawn) | 270 to 272
CCOC(=O)c1[nH]cc2c1NC1=C(C(=O)CCC1)C2c1cnc(Sc2nc3ccccc3[nH]2)s1 (stereo not drawn) | 194
CCc1[nH]c(=O)[nH]c1C(=O)c1cccnc1 | 219 to 221
COc1ccc2ccc(NC(=O)c3c(F)cccc3F)nc2n1 | 219 to 220
COc1cc(I)c(O)c(C=O)c1 | 103 to 105
NS(=O)(=O)c1cc(C(=O)O)cc(S)c1Oc1ccccc1 | 225
COc1ccc(C(=O)Nc2ccc(F)c(F)c2)cc1NS(=O)(=O)c1cccc(N)c1 | 212 to 214
COc1cc(C=O)c2c(c1OC)OCC=C2 | 82 to 82.5
N#Cc1c(C(N)=O)nn2c(-c3cccc(C(F)(F)F)c3)ccnc12 | 236 to 238
O=C1Nc2ccc(-c3cccc([N+](=O)[O-])c3)cc2C2(CCCCC2)O1 | 245 to 246
C=C(C)CNc1cc(C(=O)O)cc(S(N)(=O)=O)c1Sc1ccc(N)cc1 | 237 to 240
CCOC(=O)[C@H](Cn1cc(C)c(SC#N)nc1=O)NS(=O)(=O)N(C)C | 158
CCCc1c(OCC(O)CS(=O)(=O)c2ccc(C(=O)CCC(=O)O)cc2F)ccc(C(C)=O)c1O (stereo not drawn) | 96 to 99
CSc1nn2c(O)cc(O)nc2c1S(=O)(=O)c1ccccc1 | > 230
C#Cc1cc(Nc2ncnc3cnc(NC(=O)/C=C/CN(C)C)cc23)ccc1Cl | 173 to 176
NC(=O)C1Cc2cc(F)ccc2N1 (stereo not drawn) | 197 to 199
O=C(NCNC(=O)c1ccccc1C(=O)c1ccccc1)Nc1cccc(C(=O)OCc2ccccc2)c1 | 157 to 159
CC1(C)C(=O)N(c2ccc(C#N)c(C(F)(F)F)c2)C(=O)N1C(=O)c1ccccc1 | 179 to 180

Continued, values first:

melting point [°C] | Compound
96 to 97 | Cc1cc(CCCCCOc2ccc(-c3nc(C)c(C)s3)cc2)on1
196 to 197 | CC(C)(C)OC(=O)c1nc(-c2ccccc2)[nH]c1-c1cnccn1
113 to 115 | CCOC(=O)c1c(-c2ccc(F)cc2)cc(-c2cccc3ccccc23)nc1C(C)C
88 to 90 | FC(F)(F)Oc1ccc2nc(Cc3ccc4c(c3)CCCC4)[nH]c2c1
90 to 100 | Cc1cc(CNC(=O)c2cc(-c3ccc(-c4ccccc4C)cc3)nn2C)ccc1OC(C)(C)C(=O)O
80 to 82 | O=C(O)CCC(=O)c1cccc(C(F)(F)F)c1
218 to 221 | Cc1nc(S(=O)(=O)N(C(=O)c2ccccc2)c2c(F)cccc2F)nn1-c1ncccn1
76 to 78 | N#Cc1ccc(Br)cc1Br
111 to 112 | CN(CC1OCCO1)c1nccc(Oc2ccc(NC(=O)c3cc(F)cc(N4CCOCC4)c3)c3ccccc23)n1
172 to 174 | O=C(Nc1ccc(N2CC3CCC3C2)nc1)c1cc2cc(C(F)(F)F)cnc2n1Cc1cccc(F)c1 (stereo not drawn)
142 to 148 | COc1cc(C(=O)O)nc(-c2ccc(N(C)C)cc2)c1
108 to 109 | O=C(O)C(=O)c1ccc(OCCOc2cccc(F)c2)cc1
233 to 235 | O=C1N=CC(OCc2ccccn2)(C(F)(F)F)c2cc(Cl)ccc2N1 (stereo not drawn)
169 to 172 | CS(=O)(=O)c1ccc(-c2cnn(CC(F)(F)F)c(=O)c2NC2CCC2)cc1
152 to 154 | NC(=O)CCCCCCCOc1nc(-c2ccccc2)c(-c2ccccc2)n1-c1ccccc1
181 to 183 | COc1ccc(-c2ccc(C(=O)NO)cc2)cc1OC1CCCC1
200 to 202 | O=C1Cc2cc(NC(=O)C(=O)N3CCC(COc4ccccc4)CC3)ccc2N1

melting point [°C] | Compound
119 to 121 | Clc1nc(Oc2ccccc2)nc(Oc2ccccc2)n1
312 to 314 | CCc1cccc(C)c1CNc1cc(C(=O)O)cc2c1nc(C)n2C
113 to 115 | CCOC(=O)N1CCOC(CN2C(=O)c3ccccc3C2=O)C1 (stereo not drawn)
107 to 109 | CCOC(=O)C1=CC(C)C2=c3c1cccc3=C1N=NC=C12 (stereo not drawn)
135 to 137 | Cn1cc(C2=C(c3cn(-c4ccccc4)c4ccccc34)C(=O)NC2=O)c2ccccc21
104 to 106 | Oc1c(Cc2ccccc2)ccc2[nH]ccc12
77 to 84 | COc1ccc(C(=O)Nc2ccc(N3CCC(NC[C@H](O)COc4ccc(O)cc4)CC3)cc2)cc1OC
167 | CC(C)(C)OC(=O)Nc1ccc(-c2ccccc2F)cc1NC(=O)CC(=O)c1cccc([N+](=O)[O-])c1
130 to 131 | CC(=O)Nc1nc(NCC(O)CO)c(Cl)nc1[N+](=O)[O-] (stereo not drawn)
83 to 84 | CCC(=CC(CSc1nnnn1C)=NO)C(C)[N+](=O)[O-] (stereo not drawn)
143 to 147 | CCN1C(=O)C(C)(C)C(=O)N(C)c2cc(OCCCN3C(=O)C4(OCCO4)c4ccccc43)ccc21
153 | O=C(NCc1ccccc1)Nc1cc(CNc2ccccc2C(=O)Nc2cccc(C(F)(F)F)c2)ccn1
188 to 190 | O=Cc1ccc2c(c1)S(=O)c1ccccc1C=C2 (stereo not drawn)
143 to 144 | O=S(=O)(Nc1cccnc1Nc1ccccc1)c1cccc(Cl)c1
150 | N#Cc1cccc2nc(N[C@@H]3CCc4ccccc43)ccc12
228 to 230 | O=c1c2cc(F)c(N3CCCC3)c(F)c2n(C2CC2)c(=O)n1O
